From patent US20230108050A1, “CXCL8 (INTERLEUKIN-8) ACTIVITY INHIBITOR AND CORTICOSTEROID COMBINATION AND PHARMACEUTICAL COMPOSITION AND USE THEREOF” (Dompe' farmaceutici SpA, priority 2020, published 2023)

Tests used:
Assay type in all cases: in vivo, BALB/c mice
[1] = system: Th17 glucocorticoid-insensitive asthma mouse model; experiment: Assessment of pulmonary mechanics, Example 2d; conditions: DF2755A 10 mg/kg oral twice a day, dexamethasone 5 mg/kg; 24 h after the last challenge; FIG. 8
Protocol: (§1) The investigation was conducted on the same mouse model as described in Example 1. In details, BALB/c mice received systemic immunization by subcutaneous injection of 20 μg of chicken egg ovalbumin (OVA grade V, >98% pure; Sigma, St Louis, Mo.) in saline, emulsified in 75 μL CFA (Sigma-Aldrich) at day 0.
(§2) From day 28 after first immunization to day 31, mice were treated with PBS (vehicle), DF2755A, dexamethasone or DF2755A/dexamethasone as described below, and 60 minutes later exposed to aerosolized ovalbumin (1% in saline) for 20 minutes per day. DF2755A was administered orally by gavage twice a day so that one of the administrations was always 60 min before the OVA challenge. DF2755A was diluted in saline 0.9% only at the time of use at room temperature and used at the dose of 10 mg/kg via the oral route. Dexamethasone was diluted in saline 0.9% only at the time of use at room temperature and given at the dose of 5 mg/kg.
Mice were anesthetized with a subcutaneous injection of ketamine and xylazine (130 mg/Kg ketamine and 8.5 mg/Kg xylazine) to maintain spontaneous breathing under anesthesia. […] Under mechanical respiration the Dynamic Compliance (Cdyn) and Lung Resistance (RI) were determined by Resistance and Compliance RC test. […]

[2] = system: Th17 glucocorticoid-insensitive asthma mouse model; experiment: Neutrophil myeloperoxidase and eosinophil peroxidase activity assays in lung, Example 2c; conditions: DF2755A 10 mg/kg oral twice a day, dexamethasone 5 mg/kg
Protocol: From day 28 after first immunization to day 31, mice were treated with PBS (vehicle), DF2755A, dexamethasone or DF2755A/dexamethasone as described below, and 60 minutes later exposed to aerosolized ovalbumin (1% in saline) for 20 minutes per day. DF2755A was administered orally by gavage twice a day so that one of the administrations was always 60 min before the OVA challenge. DF2755A was diluted in saline 0.9% only at the time of use at room temperature and used at the dose of 10 mg/kg via the oral route. Dexamethasone was diluted in saline 0.9% only at the time of use at room temperature and given at the dose of 5 mg/kg. […]
The neutrophil myeloperoxidase (MPO) and eosinophil peroxidase (EPO) activities were measured as follows. […] The reaction was stopped by adding 100 μL of H2SO4 and quantified at 450 nm wave lengths in a spectrophotometer (VERSAmax, Molecular Devices, CA). […] After 30 minutes of incubation at room temperature, the reaction was stopped by adding 50 μL of H2SO4 1M and quantified at 492 nm in spectrophotometer.

[3] = system: Th17 glucocorticoid-insensitive asthma mouse model; experiment: Chemokine and cytokine analysis in lung (ELISA), Example 2b; conditions: DF2755A 10 mg/kg oral twice a day, dexamethasone 5 mg/kg, lung supernatant ELISA
Protocol: as §1, §2
After BALF, the right lung was removed and a sample of 100 mg was homogenized in 1 mL of PBS (0.4 M NaCl and 10 mM of NaPO4) containing anti-proteases (0.1 mM phenylmethylsulfonyl fluoride, 0.1 mM benzetonium chloride, 10 mM EDTA and 20 KI aprotinin A). The homogenate was centrifuged 8,000×g for 10 minutes at 4° C. The supernatant was frozen for further ELISA assay and the pellet was frozen/thawed three times using liquid nitrogen to assess neutrophil myeloperoxidase (MPO) and eosinophil peroxidase (EPO) activities.
The chemokines CXCL1/KC, CCL2/MCP-1 and CCL24/Eotaxin2, and cytokines TNF-α, IFN-γ and IL-17A levels in supernatant of lung tissue were measured by ELISA. Results were expressed as levels of cytokines (pg/mL or ng/mL) per 0.1 g of wet tissue/mL of extraction buffer.

[4] = system: Th17 glucocorticoid-insensitive asthma mouse model; experiment: Lung histology (H&E), Example 2e; conditions: DF2755A 10 mg/kg oral twice a day, dexamethasone 5 mg/kg, FIG. 9
Protocol: After BALF, left lung was removed and fixed in formalin 4% in PBS (pH 7.4). The tissue was dehydrated gradually in ethanol, embedded in paraffin, cut into 4 μm sections and stained with Hematoxylin and Eosin. Photomicrographs were obtained at 400× magnification and were analyzed using the software Image Pro Plus (Image-Pro Plus 4.1, Media Cybernetics, USA).

[5] = system: Th17 glucocorticoid-insensitive asthma mouse model; experiment: Assessment of leukocyte content in the airways (BALF), Example 2a; conditions: DF2755A 10 mg/kg oral twice a day, dexamethasone 5 mg/kg, BALF day 32
Protocol: The investigation was conducted on the same mouse model as described in Example 1. In details, BALB/c mice received systemic immunization by subcutaneous injection of 20 μg of chicken egg ovalbumin (OVA grade V, >98% pure; Sigma, St Louis, Mo.) in saline, emulsified in 75 μL CFA (Sigma-Aldrich) at day 0. From day 28 after first immunization to day 31, mice were treated with PBS (vehicle), D[…], dexamethasone or D[…]/dexamethasone as described below, and 60 minutes later exposed to aerosolized ovalbumin (1% in saline) for 20 minutes per day. D[…] was administered orally by gavage twice a day so that one of the administrations was always 60 min before the OVA challenge. D[…] was diluted in saline 0.9% only at the time of use at room temperature and used at the dose of 10 mg/kg via the oral route. […] To assess leukocyte infiltration in the airways, bronchoalveolar lavage fluid (BALF) was performed. On day 32 after immunization, an incision was made in the trachea where a 1.7 mm outside diameter polyethylene catheter was inserted. Then, the airways were washed 2 times with 1 mL of phosphate buffer saline (PBS). The samples were centrifuged at 300×g for 10 minutes at 4° C., and 100 μL of 3% BSA in PBS was added to the pellet. A sample of this solution was used to assess the total leukocytes in the airways. The remaining solution was centrifuged at 300×g for 10 minutes at 4° C. and put on a histology glass slide to perform the differential counting of macrophages, lymphocytes, eosinophils and neutrophils using an optical microscopy. The supernatant was used to quantify the amount of total protein and the levels of chemokines and cytokines. The total protein assay was determined using a Bio-Rad protein assay Dye Reagent (Bio-Rad, USA) to measure possible protein leakage.

In the case of `C[C@H](C(=O)O)c1ccc(Nc2nc(C(F)(F)F)cs2)cc1` [DF2755A, (2S)-2-(4-{[4-(trifluoromethyl)-1,3-thiazol-2-yl]amino}phenyl) propanoic acid], the “pulmonary function / pulmonary mechanics (pulmonary volumes and resistance)” value [1] was “did not significantly increased pulmonary function”, the “accumulation of neutrophils in the lungs (MPO activity)” value ([2]; FIG. 6F) was “prevented the infiltration” and the “infiltration of eosinophils in the lungs (EPO activity)” value ([2]; FIG. 6G) was “prevented the infiltration”. The “CXCL1 level in the lungs” value ([3]; FIG. 7A) was “significantly reduced”, the “CCL2 level in the lungs” value ([3]; FIG. 7B) was “significantly reduced” and the “CCL24 level in the lungs” value ([3]; FIG. 7C) was “significantly reduced”. For the same compound, the “IFN-γ level in the lungs” value ([3]; FIG. 7D) was “not significant”, the “IL-17 level in the lungs” value ([3]; FIG. 7E) was “significantly reduced” and the “TNF-α level in the lungs” value ([3]; FIG. 7F) was “significantly reduced”. For the same compound, the “lung inflammation, accumulation of leukocytes in the lung tissue (histology, inflammatory score)” value [4] was “effective in reducing accumulation of leukocytes”, the “neutrophil influx into the airways (BALF)” value ([5]; day 28-31, FIG. 6B) was “able to reduce” and the “eosinophil influx into the airways (BALF)” value ([5]; FIG. 6C) was “able to reduce”. The “lymphocytes influx into the airways (BALF)” value ([5]; FIG. 6E) was “able to reduce”.
